The test system of experiment [1] is PGE2 production in HCA-7 colon cancer cells. Nature of the experiment: PGE2 production assay in IL-1β-treated HCA-7 cells. It counts as cell-based. To be noted: Homo sapiens, HCA-7, read-out: PGE2 (%): % of inhibition of PGE2 levels in HCA-7 cells, 1 μM concentration; ± SD (n = 3); NR = no observed reduction.
In a further experiment the target is T1, COX-2 (Homo sapiens, UniProt P35354).
T1 sequence (P35354 18-604): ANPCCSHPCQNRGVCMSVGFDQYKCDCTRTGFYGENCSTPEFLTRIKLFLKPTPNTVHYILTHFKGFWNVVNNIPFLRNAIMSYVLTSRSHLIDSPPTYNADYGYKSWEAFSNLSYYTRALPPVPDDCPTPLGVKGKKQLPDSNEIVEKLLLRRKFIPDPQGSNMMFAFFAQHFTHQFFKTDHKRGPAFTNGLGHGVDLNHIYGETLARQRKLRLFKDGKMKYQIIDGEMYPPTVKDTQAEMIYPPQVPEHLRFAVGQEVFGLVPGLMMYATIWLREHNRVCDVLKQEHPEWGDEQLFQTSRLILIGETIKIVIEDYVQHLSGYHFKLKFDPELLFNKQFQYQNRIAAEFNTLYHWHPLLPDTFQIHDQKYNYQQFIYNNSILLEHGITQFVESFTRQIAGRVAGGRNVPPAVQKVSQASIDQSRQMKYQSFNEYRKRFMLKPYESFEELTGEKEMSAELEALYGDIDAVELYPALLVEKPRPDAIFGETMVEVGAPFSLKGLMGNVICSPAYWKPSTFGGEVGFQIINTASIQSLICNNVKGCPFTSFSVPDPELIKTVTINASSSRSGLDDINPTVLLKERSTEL
Put plainly: COX-2 cell-free assay. To be noted: read-out: COX-2 (%): % of inhibition of COX-2 levels in vitro.

Among the data in paper PMC3727903 (Bioorganic & medicinal chemistry letters, 2012) are inhibition values, retold here.

For `O=C(c1ccccc1)c1sc(Nc2ccc3c(c2)OCO3)nc1-c1ccccc1` [5a], the inhibition at 1 µM in experiment [1] is below 0%.

As for `COc1ccc(Nc2nc(-c3ccccc3)c(C(=O)c3ccccc3)s2)cc1` [5c], the inhibition at 1 µM in experiment [1] is below 0%.

`Cc1nc(Nc2ccc(Oc3ccccc3)cc2)sc1C(C)O` (stereo not drawn) [5l]: at COX-2, the inhibition at 5 µM is -16.9 ± 10%.
